Measured values published in publication PMC5503158 (Cancer research, 2017).

Target: Bax (Homo sapiens, UniProt Q07812)
Test: competition fluorescence polarization assay with fluorescent Bak BH3 peptide
Format: binding

Sequence of Bax (Q07812 whole entry): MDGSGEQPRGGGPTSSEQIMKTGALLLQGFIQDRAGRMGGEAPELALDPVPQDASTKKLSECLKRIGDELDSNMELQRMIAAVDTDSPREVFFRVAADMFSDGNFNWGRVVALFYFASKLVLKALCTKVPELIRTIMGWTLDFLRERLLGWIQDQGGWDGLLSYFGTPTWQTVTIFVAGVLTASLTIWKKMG

## NCCOc1ccccc1C=C1c2ccccc2-c2ccc([N+](=O)[O-])cc21 [CYD-2-11]
  Ki: 0.0341 ± 0.00854 µM
